Data reported in paper PMC5034043 (The Journal of Biological Chemistry, 2016).
Read-outs that look alike come from different tables or passages of the source.

Assays:
synaptosomal proteome = assay type: binding, mouse
Protocol: Synaptosomes were resuspended to 1 mg of protein/ml in HEPES buffer medium (in mM: 140 NaCl, 5 KCl, 5 NaHCO3, 1.2 NaH2PO4, 1 MgCl2, 10 glucose, and 10 HEPES (pH 7.4)). […] The samples were allowed to equilibrate for 5 min before being transferred to a parafilm-sealed 1-mm path length quartz cuvette. The sample was then irradiated for 20 min at a peak bandwidth of 350 nm (Rayonet RPR-3500 lamp) ∼6 cm from the light source. Non-irradiated samples were left in the dark at ambient temperature (22–25 °C) for 20 min. All remaining procedures were conducted with restricted light exposure.
To 750 μg of photolabeled or control synaptosome samples, 40 μl of 10% SDS and 2 μl of 5 mM DTT in water were added. Samples were then vortexed, heated for 10 min at 65 °C, and then briefly cooled. Final concentrations of 150 μM azide-biotin (Click Chemistry Tools), 2 mM tris(3-hydroxypropyltriazolylmethyl)amine (Sigma), 1 mM ascorbic acid (Sigma), and 1 mM CuSO4·5H2O (Sigma) were added to each sample and vortexed vigorously. The samples were left in the dark at ambient temperature (22–25 °C) for 1 h with mild agitation. Directly to each sample 4× volume chilled methanol, 1.5× chilled chloroform, and 3× chilled double distilled H2O were added. Samples were vortexed vigorously and centrifuged at 1,400 × g for 30 min at 4 °C. Both liquid layers were carefully removed, and the protein pellet was washed with 2 ml of 1:1 (v/v) chilled methanol/chloroform. Samples were centrifuged at 3,500 × g for 30 min at 4 °C. Protein pellets were briefly air-dried before further processing.
750 μg of biotin-conjugated protein sample was resuspended in 500 μl of 25 mM NH4HCO3 and 6 M urea in water. Next, 150 μl of 5% Triton X-100 in water, 50 μl of 10% SDS in water, and 1.5 μl of 0.5 M DTT were added. The samples were heated for 15 min at 65 °C. After briefly cooling, 14 μl of 0.5 M iodoacetamide in water was added, and the sample was left in the dark for 45 min. […] The supernatant was diluted to 4 ml with PBS, and 2 ml of PBS containing 100 μl of 50% streptavidin-agarose resin (Thermo Scientific) was added. Biotinylated proteins within the sample were captured over resin overnight at 4 °C with mild agitation. The resin was first washed with 6 ml of 1% SDS in PBS, and then 7 ml of 0.1 M urea in PBS followed by 10 ml of PBS. The resin underwent a final wash with 0.9 ml of 50 mM Tris-HCl and 1 mM CaCl2 in water (pH 8.0) and then resuspended in 200 μl of 50 mM Tris-HCl, 1 mM CaCl2 in water (pH 8.0), and 2 μg of porcine sequencing grade trypsin (Promega). Samples were digested overnight at 37 °C. Samples were then centrifuged at 2,000 × g for 4 min, and digest supernatant was decanted. Beads were washed in 100 μl of PBS centrifuged at 5,200 × g for 5 min, and the wash was combined with the digest supernatant. To the combined sample, trifluoroacetic acid (TFA) was added to 0.4% (v/v) or until pH <2. The sample was desalted with Oasis C18 10-mg columns (Waters) as described previously ([66]). The eluted sample was dried by speed vac and resuspended in 0.1 M HEPES buffer (pH 8.5). […] Appropriate corresponding TMTsixplex^TM-labeled samples were pooled and dried by speed vac. The combined samples were resuspended in 0.5% acetic acid in water and pH-corrected with acetic acid until pH was <2. 40 μg of protein was desalted with C18 stage tips prepared in-house and dried by speed vac.
Samples were resuspended in 10 mM KH2PO4 (pH 2.6), 30% acetonitrile (v/v) in water, and fractionated by off-line strong cation exchange chromatography prior to mass spectrometry (MS) analysis similar to as reported previously ([66]). The full synaptosome proteome control was prepared similarly without TMTsixplex^TM labeling.
All TMT samples were analyzed with three-stage mass spectrometry (MS3) TMTsixplex^TM quantification workflow as described previously ([34]).

α1β2γ2L GABAA receptors = target: T1, α1β2γ2L GABAA receptors (Homo sapiens, UniProt P14867+P47870); test: cell-based
T1 construct: expressed in transfected cells; host or cells: Xenopus laevis oocytes
Protocol: GABAA receptor expression in X. laevis oocytes was completed as described previously ([40]). cDNAs for GABAA receptor α1, β2, and γ2L subunits were generously provided by Dr. Robert Pearce (University of Wisconsin). All animal care and experimental procedures involving X. laevis frogs were carried out according to a protocol approved by the IACUC of Thomas Jefferson University. GABAA receptor currents expressed in X. laevis oocytes were recorded as reported previously ([40]). Data acquisition and initial analysis were performed using pClamp 9.2/10.3 (Molecular Devices, Sunnyvale, CA). Macroscopic currents were low-pass filtered at 1 kHz and digitized at 2 kHz. Data were fit to a sigmoidal dose-response curve with variable Hill slope.

[1] = protein A2AI17 Glutamate receptor ionotropic, NMDA 1 (Grin1)
[2] = protein P70429-2 Isoform 1 of Ena/VASP-like protein (Evl)
[3] = protein P97300-3 Isoform 3 of Neuroplastin (Nptn)
[4] = protein Q8BJU0-2 Isoform 2 of Small glutamine-rich tetratricopeptide repeat-containing protein alpha (Sgta)
[5] = protein Q9DBF1-2 Isoform 2 of Alpha-aminoadipic semialdehyde dehydrogenase (Aldh7a1)
[6] = protein Q9EPJ9-2 Isoform 2 of ADP-ribosylation factor GTPase-activating protein 1 (Arfgap1)
[7] = protein Q8CFX3 Protein Pcdh1 (Pcdh1)

T1 sequence (P14867 28-456): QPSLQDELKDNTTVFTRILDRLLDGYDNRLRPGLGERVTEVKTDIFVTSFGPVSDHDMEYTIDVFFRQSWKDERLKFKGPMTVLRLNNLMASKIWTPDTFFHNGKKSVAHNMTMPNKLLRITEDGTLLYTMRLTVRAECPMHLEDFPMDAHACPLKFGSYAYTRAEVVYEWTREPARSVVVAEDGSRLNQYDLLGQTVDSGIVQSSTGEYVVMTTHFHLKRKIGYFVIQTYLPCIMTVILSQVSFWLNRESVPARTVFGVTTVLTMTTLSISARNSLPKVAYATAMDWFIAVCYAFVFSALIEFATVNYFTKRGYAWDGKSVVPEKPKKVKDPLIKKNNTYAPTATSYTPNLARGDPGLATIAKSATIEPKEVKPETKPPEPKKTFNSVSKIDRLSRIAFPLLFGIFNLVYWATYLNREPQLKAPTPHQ
T1 sequence (P47870 25-512 limits assumed): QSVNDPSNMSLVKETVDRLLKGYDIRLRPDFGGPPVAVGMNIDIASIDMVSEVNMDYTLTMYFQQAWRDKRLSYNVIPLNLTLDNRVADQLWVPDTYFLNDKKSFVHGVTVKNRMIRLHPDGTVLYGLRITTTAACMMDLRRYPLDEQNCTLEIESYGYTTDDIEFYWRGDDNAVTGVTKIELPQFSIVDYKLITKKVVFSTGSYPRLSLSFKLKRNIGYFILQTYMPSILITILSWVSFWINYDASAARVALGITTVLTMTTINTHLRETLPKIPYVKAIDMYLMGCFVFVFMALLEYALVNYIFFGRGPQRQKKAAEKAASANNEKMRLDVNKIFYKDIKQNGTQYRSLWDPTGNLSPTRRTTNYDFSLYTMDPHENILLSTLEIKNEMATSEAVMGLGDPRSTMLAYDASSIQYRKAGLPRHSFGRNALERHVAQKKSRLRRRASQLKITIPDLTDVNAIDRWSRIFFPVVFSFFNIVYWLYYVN
T1 sequence (P18507 40-475 partner): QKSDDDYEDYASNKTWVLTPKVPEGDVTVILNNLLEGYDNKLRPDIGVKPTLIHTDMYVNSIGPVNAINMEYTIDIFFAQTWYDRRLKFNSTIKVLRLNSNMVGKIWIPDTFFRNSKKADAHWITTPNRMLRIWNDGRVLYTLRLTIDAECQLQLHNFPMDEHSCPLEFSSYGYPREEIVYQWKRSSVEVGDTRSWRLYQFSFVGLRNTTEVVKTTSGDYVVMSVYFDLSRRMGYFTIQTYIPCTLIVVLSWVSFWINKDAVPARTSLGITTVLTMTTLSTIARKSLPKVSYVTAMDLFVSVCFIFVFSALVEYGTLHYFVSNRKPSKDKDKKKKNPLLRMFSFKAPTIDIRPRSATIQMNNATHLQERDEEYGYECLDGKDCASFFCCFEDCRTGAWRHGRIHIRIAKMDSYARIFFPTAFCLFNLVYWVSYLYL

Q: Which results are given for `C#CCOCc1ccc(C2(C(F)(F)F)N=N2)cc1O` [AziPm-click (1), 2-((prop-2-yn-1-yloxy)methyl)-5-(3-(trifluoromethyl)-3H-diazirin-3-yl)phenol]?
A: TMT Ratio Mean 'UV/ No UV' (synaptosomal proteome; O35633-2 Slc32a1): 20.27; TMT Ratio Mean 'UV/ No UV' (synaptosomal proteome; P60879-2 Snap25): 23.67; Log2( Mean 'UV/ No UV') (synaptosomal proteome; [1]): 3.36; TMT Ratio Mean 'UV/ No UV' (synaptosomal proteome; [1]): 10.28; TMT Ratio Mean 'UV/ No UV' (synaptosomal proteome; protein P23819-4 Isoform 4 of Glutamate receptor 2 (Gria2)): 12.58; TMT Ratio Mean 'UV/ No UV' (synaptosomal proteome; [2]): 19.89; TMT Ratio Mean 'UV/ No UV' (synaptosomal proteome; [3]): 12.71; TMT Ratio Mean 'UV/ No UV' (synaptosomal proteome; [4]): 15.19; TMT Ratio Mean 'UV/ No UV' (synaptosomal proteome; [5]): 14.82; TMT Ratio Mean 'UV/ No UV' (synaptosomal proteome; [6]): 10.88; EC50 (α1β2γ2L GABAA receptors; read-out: EC50 for positive modulation): 49 µM

Q: Which results are given for `CC(C)c1cccc(C(C)C)c1O` [propofol, 2,6-diisopropylphenol, reference compound]?
A: Log2( Mean 'UV/ UV+propofol') (synaptosomal proteome; O35633-2 Slc32a1): 1.24; % propofol protection (synaptosomal proteome; Q8BKX1-4 Baiap2): 71%; Log2( Mean 'UV/ UV+propofol') (synaptosomal proteome; Q8BKX1-4 Baiap2): 1.77; % propofol protection (synaptosomal proteome; Q8VDQ8-2 Sirt2): 71%; Log2( Mean 'UV/ UV+propofol') (synaptosomal proteome; Q8VDQ8-2 Sirt2): 1.61; decrease in enrichment factor with propofol protection (synaptosomal proteome; five GABAA receptor subunits (α1,3 and β1–3), enrichment factor = mean (+)UV/(−)UV TMT ratio): at least 10; % propofol protection (synaptosomal proteome; [1]): 57%; Log2( Mean 'UV/ UV+propofol') (synaptosomal proteome; [1]): 1.07; % propofol protection (synaptosomal proteome; [2]): 56%; Log2( Mean 'UV/ UV+propofol') (synaptosomal proteome; [2]): 1.14; Log2( Mean 'UV/ UV+propofol') (synaptosomal proteome; [3]): 1.17; % propofol protection (synaptosomal proteome; [4]): 56%; Log2( Mean 'UV/ UV+propofol') (synaptosomal proteome; [4]): 1.02; % propofol protection (synaptosomal proteome; [7]): 50%; Log2( Mean 'UV/ UV+propofol') (synaptosomal proteome; [7]): 0.87; % propofol protection (synaptosomal proteome; [5]): 52%; Log2( Mean 'UV/ UV+propofol') (synaptosomal proteome; [5]): 0.94; % propofol protection (synaptosomal proteome; [6]): 56%; Log2( Mean 'UV/ UV+propofol') (synaptosomal proteome; [6]): 1.06; EC50 (α1β2γ2L GABAA receptors): 10 µM
